≈ marks a conversion by molar mass, not a printed value. Calls of active or inactive are those of the source. The rule behind the calls is not given here.
What was measured:
Escherichia coli = assay: Antibacterial activity against Escherichia coli ATCC 25922 at […] after 16 hrs; format: functional, organism-based
KM-20L2 = assay: Growth inhibition of human KM20L2 cells; format: functional; conditions: read-out: ED50 (the source's name)
Cryptococcus neoformans = assay: Antifungal activity against Cryptococcus neoformans ATCC 90112 at […] after 42 hrs; format: functional, organism-based
A498 = assay: Growth inhibition of human A498 cells; format: functional; conditions: read-out: ED50 (the source's name)
Staphylococcus aureus = assay: Antibacterial activity against Staphylococcus aureus ATCC 29213 assessed per 6 mm disk after 16 hrs; format: functional
OVCAR-3 = assay: Growth inhibition of human OVCAR-3 cells; format: functional; conditions: read-out: ED50 (the source's name)
P388 = assay: Growth inhibition of mouse P388 cells; format: functional; conditions: read-out: ED50 (the source's name)
Candida albicans = assay: Antifungal activity against Candida albicans ATCC 90028 at […] after 42 hrs; format: functional, organism-based
[1] = Growth inhibition of human SF295 cells; format: cell-based, SF-295; conditions: read-out: ED50 (the source's name)
SK-MEL-5 = assay: Growth inhibition of human SK-MEL-5 cells; format: functional; conditions: read-out: ED50 (the source's name)
NCI-H460 = assay: Growth inhibition of human NCI-H460 cells; format: functional; conditions: read-out: ED50 (the source's name)
Neisseria gonorrhoeae = assay: Antibacterial activity against Neisseria gonorrhoeae ATCC 49226 at […] after 16 hrs; format: functional, organism-based
Enterococcus faecalis = assay: Antibacterial activity against Enterococcus faecalis ATCC 29212 assessed per 6 mm disk after 16 hrs; format: functional
Bacillus subtilis = assay: Antibacterial activity against Bacillus subtilis; format: functional

| SMILES | Activity (Escherichia coli) | EC50 (KM-20L2) | Activity (Cryptococcus neoformans) | EC50 (A498) | MIC (Staphylococcus aureus) | EC50 (OVCAR-3) | EC50 (P388) | Activity (Candida albicans) | GI50 [1] | EC50 (SK-MEL-5) | EC50 (NCI-H460) | Activity (Neisseria gonorrhoeae) | MIC (Enterococcus faecalis) | MIC (Bacillus subtilis) |
| --- | --- | --- | --- | --- | --- | --- | --- | --- | --- | --- | --- | --- | --- | --- |
| O=C1NCCc2cc(Br)c(O)c(c2)Oc2ccc(cc2Br)[C@H](O)CNC(=O)/C(=N/O)Cc2cc(Br)c(O)c(c2)Oc2c(Br)cc(cc2Br)C/C1=N\O [BASTADIN 8] | inactive | > 10 µg/mL | inactive | 7 µg/mL (≈ 6.76 µM) | 0.195 µg | > 10 µg/mL | 22.6 µg/mL (≈ 21.8 µM) | inactive | > 10 µg/mL | 9.9 µg/mL (≈ 9.56 µM) | > 10 µg/mL | inactive | <50 µg |  |
| O=C1NCCc2cc(Br)c(O)c(c2)Oc2ccc(cc2Br)[C@H](O)CNC(=O)/C(=N/O)Cc2cc(Br)c(O)c(c2)Oc2ccc(cc2Br)C/C1=N\O [BASTADIN 10] | inactive | 2 µg/mL (≈ 2.09 µM) | inactive | 4.5 µg/mL (≈ 4.71 µM) | 1.56 µg | 2.9 µg/mL (≈ 3.03 µM) | > 10 µg/mL | inactive | 3.2 µg/mL (≈ 3.35 µM) | 3.7 µg/mL (≈ 3.87 µM) | 3.4 µg/mL (≈ 3.56 µM) | inactive | 6.25 µg |  |
| O=C1NCCc2cc(Br)c(O)c(c2)Oc2c(Br)cc(cc2Br)[C@H](O)CNC(=O)/C(=N/O)Cc2cc(Br)c(O)c(c2)Oc2ccc(cc2Br)C/C1=N\O [BASTADIN 12] | inactive | 2.1 µg/mL (≈ 2.03 µM) | inactive | 2.1 µg/mL (≈ 2.03 µM) | 6.25 µg | 2 µg/mL (≈ 1.93 µM) | 9.1 µg/mL (≈ 8.79 µM) | inactive | 2.4 µg/mL (≈ 2.32 µM) | 2.2 µg/mL (≈ 2.13 µM) | 2.3 µg/mL (≈ 2.22 µM) | inactive | 50 µg |  |
| O=C1NCCc2ccc(c(Br)c2)Oc2cc(ccc2O)CCNC(=O)/C(=N/O)Cc2cc(Br)c(O)c(c2)Oc2c(Br)cc(cc2Br)C/C1=N\O [BASTADIN 13] |  |  |  |  |  |  |  |  |  |  |  |  |  | 6 µg/mL (≈ 6.38 µM) |
